Patent US11939314B2, “Quinolin-2-one derivatives” (MERCK PATENT GMBH, priority 2016, dated 2024)

Experiments:
[1] = tested on: GISTs with primary mutation; conditions: secondary resistance emerges in almost all tumors; cited from earlier work
c-Kit(V654A) = molecular target: T1, c-Kit(V654A) (Homo sapiens, UniProt P10721, V654A); assay: c-Kit(V654A) assay; assay type: biochemical; conditions: recombinant human c-Kit aa 544-end, 200 μM ATP, 1.4E-06 means 1.4×10^−6, read-out: Inhibition (IC50) of c-KIT (V654A)
T1 construct: amino acids 544-end containing the V654A mutation; GST (N)
Summary of the method: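 Radiometric filter-binding read-out: substrate 33P incorporation counted by scintillation after P30 filtermat washes in 75 mM phosphoric acid and methanol. Enzyme: N-GST recombinant human c-Kit aa 544-end carrying V654A.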

PDGFRalpha(V561D) = molecular target: T2, PDGFRalpha(V561D) (Homo sapiens, UniProt P16234, V561D); assay: PDGFRalpha(V561D) assay; assay type: biochemical; conditions: recombinant human PDGFRalpha aa 550-end, 200 μM ATP, 1.4E-06 means 1.4×10^−6, read-out: Inhibition (IC50) of PDGFRα (V561D)
T2 construct: recombinant human PDGFRalpha, amino acids 550end containing the V561 D mutation; 6His (N)
Summary of the method: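 Radiometric filter-binding assay: substrate phosphorylation by recombinant N-His-tagged human PDGFRα 550-end V561D was quenched with 3% phosphoric acid after 40 min at room temperature, then counted.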

T1 sequence (P10721 544-976 V654A): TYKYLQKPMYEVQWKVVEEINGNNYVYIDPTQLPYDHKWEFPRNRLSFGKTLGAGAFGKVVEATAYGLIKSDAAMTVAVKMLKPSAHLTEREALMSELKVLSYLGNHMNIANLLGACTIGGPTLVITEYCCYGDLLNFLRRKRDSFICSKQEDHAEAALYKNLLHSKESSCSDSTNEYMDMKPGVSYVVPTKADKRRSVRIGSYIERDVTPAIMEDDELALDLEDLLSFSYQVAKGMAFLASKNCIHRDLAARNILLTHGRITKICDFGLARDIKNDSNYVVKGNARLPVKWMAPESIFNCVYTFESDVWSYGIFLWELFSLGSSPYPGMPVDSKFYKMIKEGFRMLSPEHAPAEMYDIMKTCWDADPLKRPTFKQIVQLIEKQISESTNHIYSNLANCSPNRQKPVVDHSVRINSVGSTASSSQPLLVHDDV
T2 sequence (P16234 550-1089 V561D): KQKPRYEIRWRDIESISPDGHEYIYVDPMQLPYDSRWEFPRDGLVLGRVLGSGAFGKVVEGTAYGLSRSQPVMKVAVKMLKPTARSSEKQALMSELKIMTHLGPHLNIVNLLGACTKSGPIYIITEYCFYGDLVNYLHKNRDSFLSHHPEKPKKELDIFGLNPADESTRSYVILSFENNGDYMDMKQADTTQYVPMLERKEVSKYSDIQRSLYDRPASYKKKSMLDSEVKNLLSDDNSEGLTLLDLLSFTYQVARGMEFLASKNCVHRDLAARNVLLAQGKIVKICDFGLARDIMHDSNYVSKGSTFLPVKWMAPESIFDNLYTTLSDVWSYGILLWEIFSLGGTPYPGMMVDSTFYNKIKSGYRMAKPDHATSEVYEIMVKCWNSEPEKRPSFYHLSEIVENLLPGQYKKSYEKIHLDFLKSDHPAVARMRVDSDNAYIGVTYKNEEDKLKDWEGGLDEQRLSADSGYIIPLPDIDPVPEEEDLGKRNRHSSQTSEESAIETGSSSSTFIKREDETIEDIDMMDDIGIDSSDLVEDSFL

Row | Compound | IC50 (c-Kit(V654A)) [nM] | IC50 (PDGFRalpha(V561D)) [nM] | initial response rate [1] [%]
1 | Cc1ccc(NC(=O)c2ccc(CN3CCN(C)CC3)cc2)cc1Nc1nccc(-c2cccnc2)n1 [Imatinib, imatinib] |  |  | ~70
2 | COC[C@@H]1CCCN1C(=O)c1ccc(-n2cc(-c3cc4cc(F)ccc4[nH]c3=O)nn2)cc1 [A215, 6-fluoro-3-{1-[4-((S)-2-methoxymethyl-pyrrolidine-1-carbonyl)-phenyl]-1H-[1,2,3]triazol-4-yl}-1H-quinolin-2-one] | 64 | 220 | 
3 | COCC1CCCN1C(=O)c1ccc(-n2cc(-c3cc4cc(F)ccc4[nH]c3=O)nn2)cc1 (stereo in doubt) [A198, 6-fluoro-3-{1-[4-((R)-2-methoxymethyl-pyrrolidine-1-carbonyl)-phenyl]-1H-[1,2,3]triazol-4-yl}-1H-quinolin-2-one] | 30 | 200 | 
4 | CO[C@@H]1CCN(C(=O)c2ccc(-n3cc(-c4cc5cc(F)ccc5[nH]c4=O)nn3)cc2)C1 [A111, 6-fluoro-3-{1-[4-((R)-3-methoxy-pyrrolidine-1-carbonyl)-phenyl]-1H-[1,2,3]triazol-4-yl}-1H-quinolin-2-one] | 7.7 | 18 | 
5 | CC(=O)N1CCN(CCOc2ccc(-n3cc(-c4cc5cc(F)c(F)cc5[nH]c4=O)nn3)cc2)CC1 [A101, 3-(1-{4-[2-(4-acetyl-piperazin-1-yl)-ethoxy]-phenyl}-1H-[1,2,3]triazol-4-yl)-6,7-difluoro-1H-quinolin-2-one] | 33 | 290 | 
6 | NC1CCN(C(=O)c2ccc(-n3cc(-c4cc5cc(F)ccc5[nH]c4=O)nn3)cc2)CC1 [A144, 3-{1-[4-(4-amino-piperidine-1-carbonyl)-phenyl]-1H-[1,2,3]triazol-4-yl}-6-fluoro-1H-quinolin-2-one] | 12 | 170 | 
7 | Cc1cc(-n2cc(-c3cc4ccccc4[nH]c3=O)nn2)ccc1C(=O)N1CCOCC1 [A40, 3-{1-[3-methyl-4-(morpholine-4-carbonyl)-phenyl]-1H-[1,2,3]triazol-4-yl}-1H-quinolin-2-one] | 26 | 7 | 
8 | CN1CCN(C(=O)c2ccc(-n3cc(-c4cc5c(F)cc(F)cc5[nH]c4=O)nn3)cc2)CC1 [A152, 5,7-difluoro-3-{1-[4-(4-methyl-piperazine-1-carbonyl)-phenyl]-1H-[1,2,3]triazol-4-yl}-1H-quinolin-2-one] | 11 | 23 | 
9 | CN1CCC(NC(=O)c2ccc(-n3cc(-c4cc5ccccc5[nH]c4=O)nn3)cc2)CC1 [A58, N-(1-Methyl-piperidin-4-yl)-4-[4-(2-oxo-1,2-dihydro-quinolin-3-yl)-[1,2,3]triazol-1-yl]-benzamide] | 44 | 21 | 
10 | COCCN1CCN(C(=O)c2ccc(-n3cc(-c4cc5cc(F)cnc5[nH]c4=O)nn3)cc2)CC1 [A175, 6-Fluoro-3-(1-{4-[4-(2-methoxy-ethyl)-piperazine-1-carbonyl]-phenyl}-1H-[1,2,3]triazol-4-yl)-1H-[1,8]naphthyridin-2-one] | 92 | 6 | 
11 | O=C(c1ccc(-n2cc(-c3cc4ccc(F)cc4[nH]c3=O)nn2)cc1)N1CCOCC1 [A83, 7-fluoro-3-{1-[4-(morpholine-4-carbonyl)-phenyl]-1H-[1,2,3]triazol-4-yl}-1H-quinolin-2-one] | 10 | 3 | 
12 | O=C(c1ccc(-n2cc(-c3cc4ccc(F)cc4[nH]c3=O)nn2)cc1)N1CCNCC1 [A117, 7-fluoro-3-{1-[4-(piperazine-1-carbonyl)-phenyl]-1H-[1,2,3]triazol-4-yl}-1H-quinolin-2-one] | 28 | 11 | 
13 | O=c1[nH]c2ccccc2cc1-c1cn(-c2ccc(N3CCNCC3)cc2)nn1 [A52, 3-[1-(4-piperazin-1-yl-phenyl)-1H-[1,2,3]triazol-4-yl]-1H-quinolin-2-one] | 22 | 27 | 
14 | O=c1[nH]c2ncc(F)cc2cc1-c1cn(-c2ccc(N3CCCNCC3)cc2)nn1 [A124, 3-[1-(4-[1,4]diazepan-1-yl-phenyl)-1H-[1,2,3]triazol-4-yl]-6-fluoro-1H-[1,8]naphthyridin-2-one] | 66 | 9 | 
15 | CN1CCN(C(=O)c2ccc(-n3cc(-c4cc5cccc(F)c5[nH]c4=O)nn3)cc2)CC1 [A150, 8-fluoro-3-{1-[4-(4-methyl-piperazine-1-carbonyl)-phenyl]-1H-[1,2,3]triazol-4-yl}-1H-quinolin-2-one] | 49 | 37 | 

The next lines start with results.

Row | IC50 (c-Kit(V654A)) [nM] | IC50 (PDGFRalpha(V561D)) [nM] | Compound | initial response rate [1] [%]
16 | 49 | 1.6 | O=C(c1ccc(-n2cc(-c3cc4cc(F)ccc4[nH]c3=O)nn2)cc1)N1CC[C@H](F)C1 [A265, 6-fluoro-3-{1-[4-((S)-3-fluoro-pyrrolidine-1-carbonyl)-phenyl]-1H-[1,2,3]triazol-4-yl}-1H-quinolin-2-one] | 
17 | 31 | 1.5 | O=C(c1ccc(-n2cc(-c3cc4cc(F)ccc4[nH]c3=O)nn2)cc1)N1CC[C@@H](F)C1 [A269, 6-fluoro-3-{1-[4-((R)-3-fluoro-pyrrolidine-1-carbonyl)-phenyl]-1H-[1,2,3]triazol-4-yl}-1H-quinolin-2-one] | 
18 | 160 | 980 | O=C(NC1COC1)c1ccc(-n2cc(-c3cc4cc(F)ccc4[nH]c3=O)nn2)cc1 [A232, 4-[4-(6-fluoro-2-oxo-1,2-dihydro-quinolin-3-yl)-[1,2,3]triazol-1-yl]-N-oxetan-3-yl-benzamide] | 
19 | 90 | 340 | O=C(c1ccc(-n2cc(-c3cc4cc(F)ccc4[nH]c3=O)nn2)cc1)N1CCOC2(COC2)C1 [A231, 3-{1-[4-(2,5-dioxa-8-aza-spiro[3.5]nonane-8-carbonyl)-phenyl]-1H-[1,2,3]triazol-4-yl}-6-fluoro-1H-quinolin-2-one] | 
20 | 98 | 93 | COCCO[C@@H]1CCN(C(=O)c2ccc(-n3cc(-c4cc5cc(F)ccc5[nH]c4=O)nn3)cc2)C1 [A252, 6-fluoro-3-(1-{4-[(R)-3-(2-methoxy-ethoxy)-pyrrolidine-1-carbonyl]-phenyl}-1H-[1,2,3]triazol-4-yl)-1H-quinolin-2-one] | 
21 | 180 | 940 | CN(C)C[C@@H]1CCN(C(=O)c2ccc(-n3cc(-c4cc5cc(F)ccc5[nH]c4=O)nn3)cc2)C1 [A326, 3-{1-[4-((S)-3-dimethylaminomethyl-pyrrolidine-1-carbonyl)-phenyl]-1H-[1,2,3]triazol-4-yl}-6-fluoro-1H-quinolin-2-one] | 
22 | 72 | 210 | Cc1cc2[nH]c(=O)c(-c3cn(-c4ccc(C(=O)N5CCN(C)CC5)cc4)nn3)cc2cc1F [A222, 6-fluoro-7-methyl-3-{1-[4-(4-methyl-piperazine-1-carbonyl)-phenyl]-1H-[1,2,3]triazol-4-yl}-1H-quinolin-2-one] | 
23 | 120 | 1400 | N[C@@H]1[C@H]2CN(C(=O)c3ccc(-n4cc(-c5cc6cc(F)ccc6[nH]c5=O)nn4)cc3)C[C@@H]12 [A317, 3-{1-[4-(6-amino-3-aza-bicyclo[3.1.0]hexane-3-carbonyl)-phenyl]-1H-[1,2,3]triazol-4-yl}-6-fluoro-1H-quinolin-2-one] | 
24 | 22 | 2.6 | O=C(c1ccc(-n2cc(-c3cc4cc(Cl)ccc4[nH]c3=O)nn2)cc1)N1CCCCC1CO (stereo not drawn) [A255, 6-chloro-3-{1-[4-(2-hydroxymethyl-piperidine-1-carbonyl)-phenyl]-1H-[1,2,3]triazol-4-yl}-1H-quinolin-2-one] | 
25 | 45 | 0.21 | O=C(c1ccc(-n2cc(-c3cc4cc(Cl)ccc4[nH]c3=O)nn2)cc1)N1C[C@@H](O)CO1 [A275, 6-chloro-3-{1-[4-((R)-4-hydroxy-isoxazolidine-2-carbonyl)-phenyl]-1H-[1,2,3]triazol-4-yl}-1H-quinolin-2-one] | 
26 | 35 | 260 | O=C(c1ccc(-n2cc(-c3cc4cc(Cl)ccc4[nH]c3=O)nn2)cc1)N1CCC(N2CCC(O)CC2)C1 (stereo not drawn) [A249, 6-chloro-3-(1-{4-[3-(4-hydroxy-piperidin-1-yl)-pyrrolidine-1-carbonyl]-phenyl}-1H-[1,2,3]triazol-4-yl)-1H-quinolin-2-one] | 
